System: 1st-stage larvae of Haemonchus contortus
Test: Test for effect on motion of larvae of Haemonchus nematode (Haemonchus contortus)
Format: cell-based
Settings: 20 larvae per well, 27° C./95% RH for 4 days, corrected for DMSO negative control, duplicate
Experimental: Test for Effect on Motion of Larvae of Haemonchus Nematode (Haemonchus contortus)
The compound of the present invention was prepared as solutions in 100% DMSO at the final concentrations of 50 ppm, 5 ppm, 0.5 ppm, 0.05 ppm and 0.005 ppm. DMSO stands for dimethyl sulfoxide.
A larval suspension containing 1st-stage larvae of Haemonchus contortus harvested by the Baermann technique (for example, see K. Nakazono et al., “Inclination of Baermann funnel wall and efficiency of nematode extraction” Proc. Assoc. Pl. Prot. Kyushu 33; 126-130 (1987) was placed at a density of 20 larvae per well in a test place, and 0.5 μL/well of the test solution containing the compound of the present invention diluted to a predetermined concentration was added to the test plate. The plate was kept, under the conditions of 27° C./95% RH for 4 days. In the test, ivermectin was used for the positive control and DMSO was used for the negative control.
The motor ability of the larvae was examined with an automatic analyzer equipped with an LCD camera. The inhibitory effect on the motion of the larvae in each treatment plot was corrected based on the inhibitory effect in the plot treated with DMSO only for the negative control. The EC50 value was calculated from the data on the corrected inhibitory effect on the motion of the larvae, and graded according to the criteria shown below.
The test was conducted in duplicate per plot.

Structure (SMILES)	EC50 value, inhibitory effect on the motion of the larvae (graded)
CC(CNC(=O)c1nccnc1C(F)(F)F)c1ccc(Oc2ncc(C(F)(F)F)cc2Cl)cc1Cl (racemic) [Compound 1-22]	C or higher
CC(CNC(=O)c1nccnc1C(F)(F)F)c1ccc(Oc2ccc(C(F)(F)F)cn2)cc1Cl (racemic) [Compound 1-23]	C or higher
CC(CNC(=O)c1nccnc1C(F)(F)F)c1ccc(Oc2ncc(Cl)cc2Cl)cc1Cl (racemic) [Compound 1-24]	C or higher
COC(CNC(=O)c1nccnc1C(F)(F)F)c1ccc(Oc2ncc(C(F)(F)F)cc2Cl)cc1Cl (racemic) [Compound 1-38]	C or higher
COC(CNC(=O)c1nccnc1C(F)(F)F)c1ccc(Oc2ccc(C(F)(F)F)cn2)cc1Cl (racemic) [Compound 1-39]	C or higher
COC(CNC(=O)c1nccnc1C(F)(F)F)c1ccc(Oc2ncc(Cl)cc2Cl)cc1Cl (racemic) [Compound 1-40]	C or higher
COC(CNC(=O)c1nccnc1C(F)(F)F)c1ccc(Oc2nc3ccccc3s2)cc1Cl (racemic) [Compound 1-41]	C or higher
COC(CNC(=O)c1nccnc1C(F)(F)F)c1ccc(Oc2cccnc2)cc1Cl (racemic) [Compound 1-45]	C or higher
O=C(NCCc1ccc(Oc2ccc(C(F)(F)F)cn2)cc1Cl)c1nccnc1C(F)(F)F [Compound 1-2]	C or higher
O=C(NCCc1ccc(Oc2ncc(Cl)cc2Cl)cc1Cl)c1nccnc1C(F)(F)F [Compound 1-3]	C or higher
O=C(NCCc1ccc(Oc2ncc(Br)cc2Cl)cc1Cl)c1nccnc1C(F)(F)F [Compound 1-4]	C or higher
O=C(NCCc1ccc(Oc2cnccn2)cc1Cl)c1nccnc1C(F)(F)F [Compound 1-7]	C or higher
COc1cc(OC)nc(Oc2ccc(CCNC(=O)c3nccnc3C(F)(F)F)c(Cl)c2)n1 [Compound 1-8]	C or higher
O=C(NCCc1ccc(Oc2ccnc(Cl)n2)cc1Cl)c1nccnc1C(F)(F)F [Compound 1-10]	C or higher
O=C(NCCc1ccc(Oc2cc(Cl)nc(Cl)n2)cc1Cl)c1nccnc1C(F)(F)F [Compound 1-11]	C or higher
Cc1cc(Oc2ccc(CCNC(=O)c3nccnc3C(F)(F)F)c(Cl)c2)nc(Cl)n1 [Compound 1-12]	C or higher
Cc1cnc(Cl)nc1Oc1ccc(CCNC(=O)c2nccnc2C(F)(F)F)c(Cl)c1 [Compound 1-13]	C or higher
O=C(NCCc1ccc(Oc2ccc3ccccc3n2)cc1Cl)c1nccnc1C(F)(F)F [Compound 1-15]	C or higher

Structure (SMILES)	EC50 value, inhibitory effect on the motion of the larvae (graded)
O=C(NCCc1ccc(Oc2cnc3ccccc3n2)cc1Cl)c1nccnc1C(F)(F)F [Compound 1-16]	C or higher
O=C(NCCc1ccc(Oc2nc3ccccc3s2)cc1Cl)c1nccnc1C(F)(F)F [Compound 1-17]	C or higher
O=C(NCCc1ccc(Oc2nc3ccc(Cl)cc3s2)cc1Cl)c1nccnc1C(F)(F)F [Compound 1-18]	C or higher
O=C(NCCc1ccc(Oc2nc3ccccc3o2)cc1Cl)c1nccnc1C(F)(F)F [Compound 1-19]	C or higher
O=C(NCCc1ccc(Oc2ccc(C(F)(F)F)cc2)cc1Cl)c1nccnc1C(F)(F)F [Compound 1-21]	C or higher
CC(C)(CNC(=O)c1nccnc1C(F)(F)F)c1ccc(Oc2ncc(C(F)(F)F)cc2Cl)cc1Cl [Compound 1-25]	C or higher
CC(C)(CNC(=O)c1nccnc1C(F)(F)F)c1ccc(Oc2ccc(C(F)(F)F)cn2)cc1Cl [Compound 1-26]	C or higher
CC(C)(CNC(=O)c1nccnc1C(F)(F)F)c1ccc(Oc2ncc(Cl)cc2Cl)cc1Cl [Compound 1-27]	C or higher
O=C(NCC1(c2ccc(Oc3ncc(C(F)(F)F)cc3Cl)cc2Cl)CC1)c1nccnc1C(F)(F)F [Compound 1-28]	C or higher
O=C(NCC1(c2ccc(Oc3ccc(C(F)(F)F)cn3)cc2Cl)CC1)c1nccnc1C(F)(F)F [Compound 1-29]	C or higher
O=C(NCC1(c2ccc(Oc3ncc(Cl)cc3Cl)cc2Cl)CC1)c1nccnc1C(F)(F)F [Compound 1-30]	C or higher
O=C(NCCc1ccc(-c2ccc(C(F)(F)F)cc2)cc1Cl)c1nccnc1C(F)(F)F [Compound 1-31]	C or higher
O=C(NCCc1ccc(-c2cccc(C(F)(F)F)c2)cc1Cl)c1nccnc1C(F)(F)F [Compound 1-32]	C or higher
O=C(NCCc1ccc(-c2cc(F)cc(F)c2)cc1Cl)c1nccnc1C(F)(F)F [Compound 1-33]	C or higher
O=C(NCCc1ccc(-c2ccccc2)cc1Cl)c1nccnc1C(F)(F)F [Compound 1-35]	C or higher
O=C(NCCc1ccc(-c2ccncc2)cc1Cl)c1nccnc1C(F)(F)F [Compound 1-36]	C or higher
O=C(NCCc1ccc(-c2cccnc2)cc1Cl)c1nccnc1C(F)(F)F [Compound 1-37]	C or higher

— patent publication US20160362393A1, “EN[…] AGENT” (THE UNIVERSITY OF TOKYO, priority 2014, published 2016)
